# Entries after “also recorded” stand apart in the source; their conditions may differ. Structures can show the parent of a compound that is named as a salt.
# Columns and labels:
# [1] = test system: DMM-induced OA in C57BL6 (B6) mice; test: Destabilization of the medial meniscus (DMM) mouse model of osteoarthritis; type: in vivo; conditions: aminoquinolines 100 mg/kg/day, atorvastatin 40 mg/kg/day, oral gavage from 1 week after DMM, 3 months; vs vehicle, two-tailed T test
# Protocol: One week following surgical induction, treatment was initiated with vehicle control, hydroxychloroquine (HCQ), or desethylhydroxychloroquine (DHCQ) dosed at 100 mg/kg/day by oral gavage (once per day). After 3 months, mice were sacrificed, joints harvested, joint sections cut, and tissue sections stained with safranin-O. An examiner blinded to treatment used microscopy to score the severity of OA. The “Cartilage Degeneration Score” (also known as the “OA score”, “Severity Score” and “Histology Score”) was determined by a blinded examiner, and the two-tailed T test used to determine if there were statistical differences in the Cartilage Degeneration Scores between groups.
# The histologic sections generated at the termination of the mouse OA experiment presented above and in FIG. 5 were subject to blinded scoring for the “Osteophyte Score” (measure of the amount of osteophyte or ectopic bone formation) and “Synovitis Score” (measure of the amount of synovial and joint inflammation). The scores between groups were compared by two-tailed T test.
# Experiments were performed under protocols approved by the Stanford University Committee of Animal Research and in accordance with NIH guidelines. Murine OA was generated by surgically by destabilization of the DMM (Glasson, S., S., et al., Osteoarthritis Cartilage, 15: 1061-1069 (2007)).
# Mice were euthanized 3 months after surgery. Their stifle joints were decalcified in EDTA solution, fixed in 4% paraformaldehyde, and embedded in paraffin. Serial 4 micron sections were cut and stained with toluidine blue. Scoring of arthritis in these histology sections was done according to a modified version of previously described composite scoring systems (Kamekura, S., et al. Osteoarthritis Cartilage 13: 632-641 (2005); Bendele, A. M., J Musculoskelet Neuronal Interact., 1: 363-376 (2001)). The “OA Score” was calculated as follows: cartilage degeneration (0-4) was multiplied by the width (1=1/3, 2=2/3, and 3=3/3 of surface area) of each third of the femoral-medial and tibial-medial condyles, and the scores for the 6 regions were summed. To evaluate osteophyte (ectopic bone) formation, we scored toluidine-blue-stained sections according to a previously described scoring system (Kamekura, S., et al. Osteoarthritis development in novel experimental mouse models induced by knee joint instability. Osteoarthritis Cartilage 13, 632-641 (2005)): 0, none; 1, formation of cartilage-like tissues; 2, increase of cartilaginous matrix; 3, endochondral ossification. To evaluate synovitis, we scored H&E-stained sections according to a previously described scoring system (Blom, A. B., et al. Synovial lining macrophages mediate osteophyte formation during experimental osteoarthritis. Osteoarthritis Cartilage 12, 627-635 (2004)): 0, no changes compared to normal joints; 1, thickening of the synovial lining and some influx of inflammatory cells; 2, thickening of the synovial lining and intermediate influx of inflammatory cells; and 3, profound thickening of the synovial lining (more than four cell layers) and maximal observed influx of inflammatory cells. Scores for osteophyte formation and synovitis were recorded for the femoral-medial and the tibial-medial condyles on the operated side of the joint, and the scores for the two regions were summed and statistical comparisons performed using a two-tailed T test.
# Treatment was started 1 week after surgical induction of destabilization of the medial meniscus (DMM), a time point at which mice were at increased risk for the development of OA.
# retinal toxicity = conditions: cited from earlier work
# [2] = test system: collagen-induced arthritis (CIA) in DBA/1 mice; test: Collagen-induced arthritis (CIA) mouse model for RA, treatment from first immunization; type: in vivo; conditions: 50 mg/kg/day oral gavage, 100 mg/kg/day loading day 14-21; vs vehicle, Mann Whitney U test P<0.05
# [3] = test system: diet-induced obesity in C57BL/6 mice; test: Mouse diet-induced obesity: type II diabetes, hyperlipidemia and metabolic syndrome; type: in vivo; conditions: 10 mg/kg/day, 6 weeks, vs vehicle; for blood glucose: two-tailed T test
# Protocol: To evaluate treatment with DHCQ and HCQ on a mouse model of diet-induced type II diabetes, hyperlipidemia and metabolic syndrome, C57BL/6 mice (8 per group) were fed a high-fat “western-style” diet (60% caloric content from fat; Taconic). In an analogous fashion to that in Example 6, two weeks following initiation of the high-fat diet groups of mice were initiated on treatment with vehicle control, HCQ (10 mg/kg/day) or the HCQ metabolites DHCQ (10 mg/kg/day), DCQ (10 mg/kg/day), or BDCQ (10 mg/kg/day). After 6 weeks of treatment, blood was collected for analysis of glucose, triglyceride, and cholesterol levels.
# ARPE-19 cells = test system: ARPE-19 cells
# Protocol: The major serious risk to long term administration of hydroxychloroquine is retinal accumulation and subsequent ocular toxicity (Terahi et al, 2008. Semin Opthal. (3):201-208. PMID). The ocular deposition of HCQ, DHCQ, and BDCQ was evaluated by direct retinal cellular toxicity by incubating equivalent concentrations of these molecules with the retinal pigmented epithelial cell line ARPE-19. ARPE-19 is a human retinal pigment epithelial cell line with differentiated properties (Dunn et al., Exp Eye Res. 1996 62(2):155-69). ARPE-19 cells were grown to 90% confluence, and then exposed to 10 µg/ml of HCQ, DHCQ, BDCQ, or vehicle control for 24 hours, following which microscopic analysis and photomicroscopy was performed at 40× power.
# As described above, ARPE-19 cells were grown to 90% confluence then exposed to 10 μg/ml HCQ, DHCQ, BDCQ, or vehicle control for 24 hours followed by quantitation of cell death by lactate dehydrogenase (LDH) release assay (Abcam).
Structure (SMILES),arthritis score (development of disease and disease activity) [2],total cholesterol [3],triglycerides [3],blood glucose [3],also measured
"CC(C)c1c(C(=O)Nc2ccccc2)c(-c2ccccc2)c(-c2ccc(F)cc2)n1CC[C@@H](O)C[C@@H](O)CC(=O)O [atorvastatin, reference compound]",–,–,–,–,Cartilage Degeneration Score (OA score) [1]: only resulted in trends towards improvement; also recorded: did not result in a statistically significant reduction in the severity of OA
"CCN(CCO)CCCC(C)Nc1ccnc2cc(Cl)ccc12 (centres unmarked) [HCQ sulfate, hydroxychloroquine sulfate]",–,–,–,–,"incidence of retinal toxicity after 5 years (retinal toxicity; treated humans, conventional doses): 0.5-1%; incidence of retinal toxicity after 10-15 years (retinal toxicity; treated humans): approximately 2%; physician discontinuation for earlier eye problems over 5 years (retinal toxicity; treated patients): ~7%"
"CCNCCCC(C)Nc1ccnc2cc(Cl)ccc12 (centres unmarked) [DCQ, desethylchloroquine]",not associated with statistical protection or reduction in disease severity,did not result in statistical reductions,did not result in statistical reductions,did not result in statistical reductions in blood glucose,–
"CC(CCCN)Nc1ccnc2cc(Cl)ccc12 (centres unmarked) [BDCQ, bisdesethylchloroquine]",not associated with statistical protection or reduction in disease severity,did not result in statistical reductions,did not result in statistical reductions,did not result in statistical reductions in blood glucose,ARPE-19 cellular toxicity by microscopy (ARPE-19 cells): increased cytotoxicity and death
CCN(CC)CCCC(C)Nc1ccnc2cc(Cl)ccc12 (centres unmarked) [chloroquine],–,–,–,–,rates of retinal toxicity relative to HCQ (retinal toxicity; in vivo): Considerably higher rates of toxicity

# From US9931335B2, “Desethylhydroxychloroquine for the treatment of diseases associated with inflammation” (The Board of Trustees of the Leland Stanford Junior …, priority 2013, dated 2018)
